# Experiment: in vitro
# Conditions: human, hek293t cells
# Protocol: Mammalian cytotoxicity measurement was performed using Cell Titer-Glo 2.0 Cell Viability Assay (Promega, G9243) according to the manufacturer protocol. In brief, mammalian cells were seeded into 384-well white plates (Greiner, 781080) and incubated at 37°C for one day. Compounds from the Cys-Library were dispensed into the assay plate using epMotion 96. The plates were then incubated at 37°C for two days. An equal volume of Cell Titer-Glo 2.0 reagent was added into each well of the assay plate using epMotion 96 and incubated at 22°C for 10 min, followed by luminescence measurement using a Cytation 5 plate reader (BioTek).
compound,measurement,value
"C=CC(=O)NCc1ccc(C(=O)N2CCOCC2)cc1 [1-L17, N-{[4-(morpholine-4-carbonyl)phenyl]methyl}prop-2-enamide]","viability at 48 h, 25 µM",81.2%
"C=CC(=O)N1CCC[C@H]1Cn1cc(C2CC2)nn1 [1-L18, 1-[(2S)-2-[(4-cyclopropyl-1H-1,2,3-triazol-1-yl)methyl]pyrrolidin-1-yl]prop-2-en-1-one]","viability at 48 h, 25 µM",92.2%
"C=CC(=O)N1CCCc2cccc(F)c21 [1-L19, 1-(8-fluoro-1,2,3,4-tetrahydroquinolin-1-yl)prop-2-en-1-one]","viability at 48 h, 25 µM",112%
"C=CC(=O)N1CCCC(Cc2noc(C)n2)C1 (stereo not drawn) [1-L20, 1-{3-[(5-methyl-1,2,4-oxadiazol-3-yl)methyl]piperidin-1-yl}prop-2-en-1-one]","viability at 48 h, 25 µM",72.5%
"C=CC(=O)Nc1ccc2ccn(CCN(C)C)c2c1 [1-L21, N-{1-[2-(dimethylamino)ethyl]-1H-indol-6-yl}prop-2-enamide]","viability at 48 h, 25 µM",113%
"C=CC(=O)N1CC(NC(=O)c2ccoc2CC)C(C)(C)C1 (stereo not drawn) [1-L22, N-[4,4-dimethyl-1-(prop-2-enoyl)pyrrolidin-3-yl]-2-ethylfuran-3-carboxamide]","viability at 48 h, 25 µM",71.3%
"C=CC(=O)NCc1cnc(N2CCOCC2)s1 [1-M03, N-{[2-(morpholin-4-yl)-1,3-thiazol-5-yl]methyl}prop-2-enamide]","viability at 48 h, 25 µM",86.3%
"C=CC(=O)NC1(c2cccc(F)c2)CCOCC1 [1-M04, N-[4-(3-fluorophenyl)oxan-4-yl]prop-2-enamide]","viability at 48 h, 25 µM",71.1%
"C=CC(=O)Nc1ccccc1-c1nnnn1C [1-M05, N-[2-(1-methyl-1H-1,2,3,4-tetrazol-5-yl)phenyl]prop-2-enamide]","viability at 48 h, 25 µM",79.7%
"C=CC(=O)NCCc1coc(-c2ccc(C)cc2)n1 [1-M06, N-{2-[2-(4-methylphenyl)-1,3-oxazol-4-yl]ethyl}prop-2-enamide]","viability at 48 h, 25 µM",68.3%
"C=CC(=O)NCc1ccc(-n2cccn2)cc1 [1-M07, N-{[4-(1H-pyrazol-1-yl)phenyl]methyl}prop-2-enamide]","viability at 48 h, 25 µM",81.4%
"C=CC(=O)NC1CCC(OCc2cc(C)no2)CC1 (stereo not drawn) [1-M08, N-{4-[(3-methyl-1,2-oxazol-5-yl)methoxy]cyclohexyl}prop-2-enamide]","viability at 48 h, 25 µM",86.5%
"C=CC(=O)NC(C)c1nnnn1C1CC1 (stereo not drawn) [1-M09, N-[1-(1-cyclopropyl-1H-1,2,3,4-tetrazol-5-yl)ethyl]prop-2-enamide]","viability at 48 h, 25 µM",82.7%
"C=CC(=O)N(CCO)c1ccc(C(=O)O)cc1 [1-M10, 4-[N-(2-hydroxyethyl)prop-2-enamido]benzoic acid]","viability at 48 h, 25 µM",96.4%
"C=CC(=O)NCc1ccnc(N2CCN(c3ccc(F)cc3)CC2)c1 [1-M11, N-({2-[4-(4-fluorophenyl)piperazin-1-yl]pyridin-4-yl}methyl)prop-2-enamide]","viability at 48 h, 25 µM",71.6%
"C=CC(=O)Nc1ncccn1 [1-M12, N-(pyrimidin-2-yl)prop-2-enamide]","viability at 48 h, 25 µM",71.5%
"C=CC(=O)Nc1cc2c(cc1Sc1ccccc1)OCCO2 [1-M13, N-[7-(phenylsulfanyl)-2,3-dihydro-1,4-benzodioxin-6-yl]prop-2-enamide]","viability at 48 h, 25 µM",82.4%
"C=CC(=O)NCc1cccc(-n2cccn2)n1 [1-M14, N-{[6-(1H-pyrazol-1-yl)pyridin-2-yl]methyl}prop-2-enamide]","viability at 48 h, 25 µM",93.2%
"C=CC(=O)Nc1ccccc1C1CC1(F)F (stereo not drawn) [1-M15, N-[2-(2,2-difluorocyclopropyl)phenyl]prop-2-enamide]","viability at 48 h, 25 µM",86.4%
"C=CC(=O)Nc1cccc(C(O)C(F)(F)F)c1 (stereo not drawn) [1-M16, N-[3-(2,2,2-trifluoro-1-hydroxyethyl)phenyl]prop-2-enamide]","viability at 48 h, 25 µM",102%
"C=CC(=O)NCC1CCCC(C2CC2)O1 (stereo not drawn) [1-M17, N-[(6-cyclopropyloxan-2-yl)methyl]prop-2-enamide]","viability at 48 h, 25 µM",88.7%
"C=CC(=O)NCc1ccc(-n2ccnc2)cc1 [1-M18, N-{[4-(1H-imidazol-1-yl)phenyl]methyl}prop-2-enamide]","viability at 48 h, 25 µM",90.9%
"C=CC(=O)Nc1c(C)cnn1CC1CC1 [1-M19, N-[1-(cyclopropylmethyl)-4-methyl-1H-pyrazol-5-yl]prop-2-enamide]","viability at 48 h, 25 µM",94.9%
"C=CC(=O)Nc1ccc(C(=O)C(F)F)cc1 [1-M20, N-[4-(2,2-difluoroacetyl)phenyl]prop-2-enamide]","viability at 48 h, 25 µM",104%
"C=CC(=O)Nc1ncnc2c1cnn2Cc1cccc(C)c1 [1-M21, N-{1-[(3-methylphenyl)methyl]-1H-pyrazolo[3,4-d]pyrimidin-4-yl}prop-2-enamide]","viability at 48 h, 25 µM",100%
"C=CC(=O)NCc1nnnn1-c1ccc(F)cc1 [1-M22, N-{[1-(4-fluorophenyl)-1H-1,2,3,4-tetrazol-5-yl]methyl}prop-2-enamide]","viability at 48 h, 25 µM",106%
"C=CC(=O)NCc1ccccc1S(=O)(=O)NC [1-N03, N-{[2-(methylsulfamoyl)phenyl]methyl}prop-2-enamide]","viability at 48 h, 25 µM",92.3%
"C=CC(=O)NC(C)c1cn(-c2ccccc2)nn1 (stereo not drawn) [1-N04, N-[1-(1-phenyl-1H-1,2,3-triazol-4-yl)ethyl]prop-2-enamide]","viability at 48 h, 25 µM",78.9%
"C=CC(=O)N1CCc2c(nnn2CCOC)C1 [1-N05, 1-[1-(2-methoxyethyl)-1H,4H,5H,6H,7H-[1,2,3]triazolo[4,5-c]pyridin-5-yl]prop-2-en-1-one]","viability at 48 h, 25 µM",105%
"C=CC(=O)NCc1conc1C1CCC1 [1-N06, N-[(3-cyclobutyl-1,2-oxazol-4-yl)methyl]prop-2-enamide]","viability at 48 h, 25 µM",69.5%
"C=CC(=O)NCCc1c(C)oc2ccccc12 [1-N07, N-[2-(2-methyl-1-benzofuran-3-yl)ethyl]prop-2-enamide]","viability at 48 h, 25 µM",119%
"C=CC(=O)NC1CCN(Cc2ccc(Cl)cc2)CC1 [1-N08, N-{1-[(4-chlorophenyl)methyl]piperidin-4-yl}prop-2-enamide]","viability at 48 h, 25 µM",101%
"C=CC(=O)N(CC(C)(C)C)C1CCN(c2ccc(C#N)cn2)CC1 [1-N09, N-[1-(5-cyanopyridin-2-yl)piperidin-4-yl]-N-(2,2-dimethylpropyl)prop-2-enamide]","viability at 48 h, 25 µM",105%
"C=CC(=O)NC(C)(C)c1noc(CCC)n1 [1-N10, N-[2-(5-propyl-1,2,4-oxadiazol-3-yl)propan-2-yl]prop-2-enamide]","viability at 48 h, 25 µM",91.9%
"C=CC(=O)N1CCCC1c1cccc(C)c1 (stereo not drawn) [1-N11, 1-[2-(3-methylphenyl)pyrrolidin-1-yl]prop-2-en-1-one]","viability at 48 h, 25 µM",110%
"C=CC(=O)Nc1ccc2c(=O)onc(C)c2c1 [1-N12, N-(4-methyl-1-oxo-1H-2,3-benzoxazin-6-yl)prop-2-enamide]","viability at 48 h, 25 µM",1.1%
"C=CC(=O)N(Cc1cccc(F)c1F)C1CCCC(F)(F)C1 (stereo not drawn) [1-N13, N-(3,3-difluorocyclohexyl)-N-[(2,3-difluorophenyl)methyl]prop-2-enamide]","viability at 48 h, 25 µM",136%
"C=CC(=O)Nc1ccnn1Cc1cccc(Cl)c1 [1-N14, N-{1-[(3-chlorophenyl)methyl]-1H-pyrazol-5-yl}prop-2-enamide]","viability at 48 h, 25 µM",1.05%
"C=CC(=O)NC1CCN(Cc2ccccc2)C1 (stereo not drawn) [1-N15, N-(1-benzylpyrrolidin-3-yl)prop-2-enamide]","viability at 48 h, 25 µM",103%
"C=CC(=O)N1CCC(c2ccc(OC)cc2)C1 (stereo not drawn) [1-N16, 1-[3-(4-methoxyphenyl)pyrrolidin-1-yl]prop-2-en-1-one]","viability at 48 h, 25 µM",92.1%
"C=CC(=O)NC(C)c1nc(C2CCCCC2)no1 (stereo not drawn) [1-N17, N-[1-(3-cyclohexyl-1,2,4-oxadiazol-5-yl)ethyl]prop-2-enamide]","viability at 48 h, 25 µM",102%
"C=CC(=O)N1CCC(c2nc3ccccc3o2)CC1 [1-N18, 1-[4-(1,3-benzoxazol-2-yl)piperidin-1-yl]prop-2-en-1-one]","viability at 48 h, 25 µM",80.1%
"C=CC(=O)N1CCN(C(=O)c2cc(C)no2)CC1 [1-N19, 1-[4-(3-methyl-1,2-oxazole-5-carbonyl)piperazin-1-yl]prop-2-en-1-one]","viability at 48 h, 25 µM",102%
"C=CC(=O)N1CCN(Cc2ccon2)CC1 [1-N20, 1-{4-[(1,2-oxazol-3-yl)methyl]piperazin-1-yl}prop-2-en-1-one]","viability at 48 h, 25 µM",79.6%
"C=CC(=O)N(C)Cc1ccncc1 [1-N21, N-methyl-N-[(pyridin-4-yl)methyl]prop-2-enamide]","viability at 48 h, 25 µM",135%
"C=CC(=O)NC1CN(C(C)=O)C1 [1-N22, N-(1-acetylazetidin-3-yl)prop-2-enamide]","viability at 48 h, 25 µM",73.1%
"C=CC(=O)Nc1c(C)ccc(Cl)c1CO [1-O03, N-[3-chloro-2-(hydroxymethyl)-6-methylphenyl]prop-2-enamide]","viability at 48 h, 25 µM",67.5%
"C=CC(=O)N1CCC(C(=O)Nc2[nH]nc(C(F)(F)F)c2C)CC1 [1-O04, N-[4-methyl-3-(trifluoromethyl)-1H-pyrazol-5-yl]-1-(prop-2-enoyl)piperidine-4-carboxamide]","viability at 48 h, 25 µM",113%
"C=CC(=O)N1CCOC(c2noc(C(C)C)n2)C1 (stereo not drawn) [1-O05, 1-{2-[5-(propan-2-yl)-1,2,4-oxadiazol-3-yl]morpholin-4-yl}prop-2-en-1-one]","viability at 48 h, 25 µM",87%
"C=CC(=O)Nc1nn(C2CCCC2)c(C)c1Cl [1-O06, N-(4-chloro-1-cyclopentyl-5-methyl-1H-pyrazol-3-yl)prop-2-enamide]","viability at 48 h, 25 µM",78.2%
"C=CC(=O)NCc1ccno1 [1-O07, N-[(1,2-oxazol-5-yl)methyl]prop-2-enamide]","viability at 48 h, 25 µM",68.4%
"C=CC(=O)NC1CCC(c2nc(CC)no2)CC1 (stereo not drawn) [1-O08, N-[4-(3-ethyl-1,2,4-oxadiazol-5-yl)cyclohexyl]prop-2-enamide]","viability at 48 h, 25 µM",92.2%
"C=CC(=O)Nc1cnn(-c2ccncc2)c1C(F)F [1-O09, N-[5-(difluoromethyl)-1-(pyridin-4-yl)-1H-pyrazol-4-yl]prop-2-enamide]","viability at 48 h, 25 µM",67.8%
"C=CC(=O)Nc1ccccc1Cl [1-O10, N-(2-chlorophenyl)prop-2-enamide]","viability at 48 h, 25 µM",63%
"C=CC(=O)Nc1ccc2c(c1)CCO2 [1-O11, N-(2,3-dihydro-1-benzofuran-5-yl)prop-2-enamide]","viability at 48 h, 25 µM",87.8%
"C=CC(=O)NCC(F)(F)c1cccnc1 [1-O12, N-[2,2-difluoro-2-(pyridin-3-yl)ethyl]prop-2-enamide]","viability at 48 h, 25 µM",111%
"C=CC(=O)Nc1ccc(C)cc1S(=O)(=O)N1CCOCC1 [1-O13, N-[4-methyl-2-(morpholine-4-sulfonyl)phenyl]prop-2-enamide]","viability at 48 h, 25 µM",74.9%

# Reference: article PMC11995724, “Antibiotic target discovery by integrated phenotypic and activity-based profiling of electrophilic fragments” (Cell chemical biology, 2025)
